According to US9763942B2, “Serine/threonine kinase inhibitors” (Array BioPharma Inc., priority 2013, dated 2017):
Read-outs that look alike come from different tables or passages of the source.

Tests used:
[1] = target: T1, human ERK-2 (Mitogen Activated Kinase 1) (Homo sapiens, UniProt P28482); assay: ERK-2 Enzymatic Assay; type: biochemical
T1 construct: n-terminal 6-His fusion protein in E. coli and corresponding to aa 8-360; 6-His (N); made in house; host or cells: E. coli
From the text: Table 1 contains representative data for Examples disclosed herein.

[2] = tested on: PMA-stimulated P90RSK(Ser380) phosphorylation in HepG2 cells; assay: Cellular P90RSK(Ser380) Phosphorylation Assay; type: cell-based; conditions: Homo sapiens, 1.5 hours compound incubation, PMA 100 ng/mL 30 minutes, pP90RSK(Ser380) signal normalized to GAPDH, single assay or mean of multiple assays, read-out: Biological Example 2 IC50
Experimental: Inhibition of PMA-stimulated P90RSK(Ser380) phosphorylation was determined by the following in vitro cellular mechanistic assay, which comprises incubating cells with a compound for 1.5 hours and quantifying fluorescent pP90RSK(Ser380) signal on fixed cells and normalizing to GAPDH signal.
HepG2 cells were obtained from ATCC and grown in DMEM supplemented with 10% fetal bovine serum. Cells were plated in 96-well plates at 35,000 cells/well and allowed to attach overnight at 37° C./5% CO2. Diluted compounds were then added at a final concentration of 0.5% DMSO. After 1.5 hours compound incubation, cells were stimulated with the addition of phorbol 12-myristate 13-acetate (“PMA”) at a final concentration of 100 ng/mL; the PMA stimulation was a 30-minute incubation at 37° C./5% CO2. After the 30-minute PMA stimulation, cells were washed with phosphate buffered saline (“PBS”) and fixed in 3.7% formaldehyde in PBS at room temperature for 15-20 minutes. This was followed by another wash in PBS and then permeabilization in 100% MeOH at room temperature for 10-15 minutes. Following the permeabilization incubation, cells were washed in PBS/0.05% Tween-20, followed by a block in Odyssey blocking buffer (LI-COR Biosciences) for at least 1 hour. Antibodies to phosphorylated P90RSK(Ser380) (Cell Signaling #9335, rabbit monoclonal) and GAPDH (Fitzgerald 10R-G109a, mouse monoclonal) were added to the cells and incubated overnight at 4° C. pP90RSK(Ser380) antibody was used at a 1:250 dilution; GAPDH was used at a 1:10,000 dilution. After washing with PBS/0.05% Tween-20, the cells were incubated with fluorescently-labeled secondary antibodies (Anti-rabbit-Alexa Flour680, Invitrogen Cat#A21109; Anti-mouse-IRDye800CW, Rockland Inc. Cat#610-131-121) for 1 hour. Both secondary antibodies were used at a 1:1000 dilution. Cells were then washed and analyzed for fluorescence at both wavelengths using the Odyssey Infrared Imaging System (LI-COR Biosciences). Phosphorylated P90RSK(Ser380) signal was normalized to GAPDH signal.

[3] = 5 nM ERK-2 enzyme, 25 μM ATP (observed Km), Omnia peptide S/T17, single assay or mean of multiple assays, read-out: Biological Example 1 IC50
[4] = ERK-2 enzymatic assay, read-out: IC50

T1 sequence (P28482 8-360): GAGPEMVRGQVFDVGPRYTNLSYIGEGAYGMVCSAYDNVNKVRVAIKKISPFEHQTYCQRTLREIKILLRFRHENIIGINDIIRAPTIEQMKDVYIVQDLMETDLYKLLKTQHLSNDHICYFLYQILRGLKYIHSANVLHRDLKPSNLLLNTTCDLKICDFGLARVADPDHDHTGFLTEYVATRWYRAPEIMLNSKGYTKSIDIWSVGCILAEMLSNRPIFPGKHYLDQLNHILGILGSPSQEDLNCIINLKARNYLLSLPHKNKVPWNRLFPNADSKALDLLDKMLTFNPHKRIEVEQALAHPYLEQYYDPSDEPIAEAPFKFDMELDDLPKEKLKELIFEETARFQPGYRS

| SMILES | IC50 [1, 3] [nM] | IC50 [1, 4] [nM] | IC50 [2] [nM] |
| --- | --- | --- | --- |
| Cn1nccc1Nc1nccc(-c2ccc3c(c2)nnn3CCn2cc(Cl)cn2)n1 [Example 4, 4-(1-(2-(4-chloro-1H-pyrazol-1-yl)ethyl)-1H-benzo[d][1,2,3]triazol-5-yl)-N-(1-methyl-1H-pyrazol-5-yl)pyrimidin-2-amine] | 1.9 | < 100 | 3.2 |
| Cn1nccc1Nc1cc(-c2ccc3c(c2)nnn3Cc2ccc(Cl)cc2)ccn1 [Example 55, 4-(1-(4-chlorobenzyl)-1H-benzo[d][1,2,3]triazol-5-yl)-N-(1-methyl-1H-pyrazol-5-yl)pyridin-2-amine] | 5.1 | < 100 | 184 |
| COc1ccc([C@@H](c2cnn(C)c2)n2nnc3cc(-c4ccnc(Nc5ccnn5C)n4)ccc32)cc1F [Example 70] | 1.7 | < 100 | 79.1 |
| Cn1nccc1Nc1nccc(-c2ccc3c(c2)nnn3CC2CCC(F)(F)CC2)n1 [Example 33, 4-(1-((4,4-difluorocyclohexyl)methyl)-1H-benzo[d][1,2,3]triazol-5-yl)-N-(1-methyl-1H-pyrazol-5-yl)pyrimidin-2-amine] | 4 | < 100 | 63.3 |
| Cn1nccc1Nc1nccc(-c2ccc3c(c2)nnn3CCn2cccn2)n1 [Example 104, 4-(1-(2-(1H-pyrazol-1-yl)ethyl)-1H-benzo[d][1,2,3]triazol-5-yl)-N-(1-methyl-1H-pyrazol-5-yl)pyrimidin-2-amine] | 2.2 | < 100 | 19.6 |
| COc1ccc(Cn2nnc3cc(-c4ccnc(Nc5cn(C)nc5C)n4)ccc32)cc1F [Example 8, N-(1,3-dimethyl-1H-pyrazol-4-yl)-4-(1-(3-fluoro-4-methoxybenzyl)-1H-benzo[d][1,2,3]triazol-5-yl)pyrimidin-2-amine] | 2.9 | < 100 | 56.8 |
| COc1ncccc1Cn1nnc2cc(-c3ccnc(Nc4ccnn4C)n3)ccc21 [Example 67, 4-(1-((2-methoxypyridin-3-yl)methyl)-1H-benzo[d][1,2,3]triazol-5-yl)-N-(1-methyl-1H-pyrazol-5-yl)pyrimidin-2-amine] |  | < 100 |  |

Continued, in another order:

| IC50 [1, 3] [nM] | IC50 [1, 4] [nM] | SMILES | IC50 [2] [nM] |
| --- | --- | --- | --- |
| 7.8 | < 100 | Cc1ncccc1Cn1nnc2cc(-c3ccnc(Nc4ccnn4C)c3)ccc21 [Example 56, N-(1-methyl-1H-pyrazol-5-yl)-4-(1-((2-methylpyridin-3-yl)methyl)-1H-benzo[d][1,2,3]triazol-5-yl)pyridin-2-amine] | 781 |
| 2.5 | < 100 | COc1ccc(Cn2nnc3cc(-c4ccnc(Nc5ccnn5C)n4)cnc32)cc1F [Example 5, 4-(3-(3-fluoro-4-methoxybenzyl)-3H-[1,2,3]triazolo[4,5-b]pyridin-6-yl)-N-(1-methyl-1H-pyrazol-5-yl)pyrimidin-2-amine] | 16.8 |
| 2 | < 100 | COc1ccc([C@@H](c2nccn2C)n2nnc3cc(-c4ccnc(Nc5ccnn5C)n4)ccc32)cc1F [Example 72, (S)-4-(1-((3-fluoro-4-methoxyphenyl)(1-methyl-1H-imidazol-2-yl)methyl)-1H-benzo[d][1,2,3]triazol-5-yl)-N-(1-methyl-1H-pyrazol-5-yl)pyrimidin-2-amine] | 3.7 |
| 2.6 | < 100 | COc1ccc(Cn2nnc3cc(-c4ccnc(N[C@@H]5CCOC[C@H]5F)n4)ccc32)cc1F [Example 6, 4-(1-(3-fluoro-4-methoxybenzyl)-1H-benzoyl[d][1,2,3]triazol-5-yl)-N-((3S,4R)-3-fluorotetrahydro-2H-pyran-4-yl)pyrimidin-2-amine] | 58.2 |
| 53.2 | < 100 | Cn1nccc1Nc1nccc(-c2ccc3c(c2)nnn3CC2CNC2)n1 [Example 62, 4-(1-(azetidin-3-ylmethyl)-1H-benzo[d][1,2,3]triazol-5-yl)-N-(1-methyl-1H-pyrazol-5-yl)pyrimidin-2-amine] | 1400 |
| 5.7 | < 100 | CCOCCCn1nnc2cc(-c3ccnc(Nc4ccnn4C)n3)ccc21 [Example 43, 4-(1-(3-ethoxypropyl)-1H-benzo[d][1,2,3]triazol-5-yl)-N-(1-methyl-1H-pyrazol-5-yl)pyrimidin-2-amine] | 68.5 |
| 11.4 | < 100 | Cc1cccc(Cn2nnc3cc(-c4ccnc(Nc5ccnn5C)n4)ccc32)n1 [Example 58, N-(1-methyl-1H-pyrazol-5-yl)-4-(1-((6-methylpyridin-2-yl)methyl)-1H-benzo[d][1,2,3]triazol-5-yl)pyrimidin-2-amine] | 437 |
| 0.9 | < 100 | Cn1nccc1Nc1nccc(-c2ccc3c(c2)nnn3Cc2cccc(F)c2F)n1 [Example 1, 4-(1-(2,3-difluorobenzyl)-1H-benzo[1,2,3]triazol-5-yl)-N-(1-methyl-1H-pyrazol-5-yl)pyrimidin-2-amine] | 22.7 |
| 2.8 | < 100 | CN1CC(n2nnc3cc(-c4ccnc(Nc5ccnn5C)n4)ccc32)C1 [Example 86, N-(1-methyl-1H-pyrazol-5-yl)-4-(1-(1-methylazetidin-3-yl)-1H-benzo[d][1,2,3]triazol-5-yl)pyrimidin-2-amine] | 21.8 |
